Among the test systems are MOLT-4 leukemia; OVCAR-3 ovarian; EKVX NSCLC; SW-620 colon; UACC-62 melanoma; CAKI-1 renal; A549 NSCLC; SNB-19 CNS; SF-539 CNS; U251 CNS.
What all share (experiment): inhibition of tumour cell growth, NCI panel, 48 h

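All cell lines were grown in 96-well plates and treated with compound for 48 hours. Abbreviation: GI50, concentration required for 50% inhibition of growth. TGI marks complete inhibition of growth.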

With `Cn1ncc2cc3c(Nc4ccc(Cl)cc4)cccc3nc21`, the TGI in the test with MOLT-4 leukemia came to 36.3 µM; with OVCAR-3 ovarian, 44 µM; in the test on EKVX NSCLC, 88 µM; in the test on SW-620 colon, 48.8 µM; in the test with UACC-62 melanoma it was 32.7 µM; with CAKI-1 renal, 61.3 µM. Also, the TGI with A549 NSCLC is 85.3 µM; in the test on SNB-19 CNS it was more than 100 µM.

As for `COc1ccc(/C(=C/c2cc(OC)c(OC)c(OC)c2)[N+](=O)[O-])cc1`, the GI50 with OVCAR-3 ovarian was 1.66 µM; in the test with EKVX NSCLC, 1.96 µM; in the test on SW-620 colon, 1.71 µM; in the test with UACC-62 melanoma, 1.56 µM; in the test with SF-539 CNS it was 1.61 µM; in the test with U251 CNS, 1.58 µM. Also, the GI50 was 3 µM in the test on A549 NSCLC and 1.68 µM in the test on SNB-19 CNS. In addition, the TGI worked out at 3.14 µM in the test on OVCAR-3 ovarian; 4.32 µM in the test with EKVX NSCLC; 3.91 µM in the test on SW-620 colon; 3.07 µM in the test on UACC-62 melanoma; 2.98 µM with SF-539 CNS; 3.05 µM with U251 CNS. For the same compound, the TGI in the test with A549 NSCLC was 10.3 µM; with SNB-19 CNS, 3.64 µM.

As for `C=C(c1ccccc1N)[C@@]1(O)C[C@H](/C(=C\C)CO)C[C@@H]1NCc1ccccc1`, the TGI is 39.7 µM with MOLT-4 leukemia; 45.8 µM in the test on OVCAR-3 ovarian; more than 100 µM in the test with EKVX NSCLC; 50 µM in the test with SW-620 colon; more than 100 µM with UACC-62 melanoma; 29.9 µM with SF-539 CNS. For the same compound, the TGI is 33.3 µM with U251 CNS, more than 100 µM in the test with A549 NSCLC and 79.5 µM with SNB-19 CNS.

For `OB([O][Hg][c]1ccccc1)[O][Hg][c]1ccccc1`, the GI50 in the test on MOLT-4 leukemia is 0.177 µM; in the test with OVCAR-3 ovarian, 0.0812 µM; with SW-620 colon, 0.191 µM; in the test with UACC-62 melanoma it was 0.454 µM; in the test on SF-539 CNS, 1.09 µM; with CAKI-1 renal, 0.639 µM. In addition, the GI50 in the test with U251 CNS is 0.507 µM; with A549 NSCLC, 1.83 µM; in the test with SNB-19 CNS it was 1.46 µM. Also, the TGI in the test with MOLT-4 leukemia was found to be 0.643 µM; in the test with OVCAR-3 ovarian, 0.213 µM; in the test with SW-620 colon, 0.5 µM; in the test on UACC-62 melanoma it was 1.69 µM; with SF-539 CNS, 2.34 µM; with CAKI-1 renal, 2.01 µM. Moreover, the TGI is 1.89 µM in the test on U251 CNS, 4.64 µM in the test on A549 NSCLC and 2.84 µM in the test on SNB-19 CNS.

Consider `O=C1/C(=C\c2ccc(Cl)cc2)CN(C(=S)Nc2ccccc2)C/C1=C\c1ccc(Cl)cc1`, for which the GI50 with MOLT-4 leukemia was 1.74 µM; with OVCAR-3 ovarian it was 0.437 µM; in the test on SW-620 colon it was 0.298 µM; in the test with UACC-62 melanoma it was 1.2 µM; in the test with SF-539 CNS, 0.427 µM; with CAKI-1 renal, 2.56 µM. Further, the GI50 with U251 CNS was 0.212 µM; in the test on A549 NSCLC, 0.415 µM; in the test with SNB-19 CNS it was 0.661 µM. Also, the TGI in the test on MOLT-4 leukemia was 13.7 µM; in the test with OVCAR-3 ovarian, 1.49 µM; in the test with SW-620 colon, 1.04 µM; in the test with UACC-62 melanoma, 2.92 µM; in the test with SF-539 CNS it was 1.54 µM; in the test with CAKI-1 renal it was more than 29.2 µM. For the same compound, the TGI was 0.484 µM in the test with U251 CNS, 10.3 µM in the test with A549 NSCLC and 1.95 µM with SNB-19 CNS.

Take `C1CCC([PH+](C2CCCCC2)C2CCCCC2[PH+](C2CCCCC2)C2CCCCC2)CC1.[Au].[CH-]1CCCCC1C1CCCC[N-]1` (stereo not given): the GI50 was 0.366 µM in the test with MOLT-4 leukemia, 0.286 µM with OVCAR-3 ovarian, 0.254 µM with UACC-62 melanoma and 0.337 µM in the test on SF-539 CNS. In addition, the TGI was more than 100 µM in the test on MOLT-4 leukemia, 1.1 µM with OVCAR-3 ovarian, 0.979 µM in the test with UACC-62 melanoma and 1.28 µM with SF-539 CNS.

Take `CC1=C(C(=O)Nc2ccccc2)C(c2ccc3c(c2)OCO3)C(C(=O)Nc2ccccc2)=C(C)N1`: the TGI is 82 µM in the test on MOLT-4 leukemia; more than 100 µM in the test with OVCAR-3 ovarian; more than 100 µM in the test with EKVX NSCLC; 12.3 µM in the test with SW-620 colon; more than 100 µM in the test with UACC-62 melanoma; 76 µM with SF-539 CNS. Also, the TGI in the test on CAKI-1 renal, with A549 NSCLC and in the test with SNB-19 CNS was more than 100 µM throughout.

On to `CC1(C)N=C(N)N=C(N)N1c1cccc(/C=C/C=C/c2cccc([N+](=O)[O-])c2)c1`, for which the GI50 in the test on MOLT-4 leukemia is 5.9 µM; in the test on OVCAR-3 ovarian, 1.89 µM; in the test with SW-620 colon it was 2.56 µM; in the test with UACC-62 melanoma, 3.74 µM; in the test on SF-539 CNS, 4.43 µM; in the test with CAKI-1 renal it was 75.3 µM. The GI50 is 0.801 µM in the test with U251 CNS, 3.9 µM in the test on A549 NSCLC and 6.04 µM in the test on SNB-19 CNS. Besides, the TGI in the test with MOLT-4 leukemia is 23.6 µM; in the test on OVCAR-3 ovarian it was 13.1 µM; in the test on SW-620 colon, 18.8 µM; in the test with UACC-62 melanoma it was 17.9 µM; with SF-539 CNS, 17.6 µM; with CAKI-1 renal, more than 100 µM. Besides, the TGI with U251 CNS was 13.6 µM; with A549 NSCLC it was 24 µM; in the test with SNB-19 CNS, 22.5 µM.

On to `CC(=O)[CH-]C(=O)c1ccccc1.CC(=O)[CH-]C(=O)c1ccccc1.CCN(CC)CC[O-].CCN(CC)CC[O-].Cl.[Ti+4]`, for which the GI50 was 16.8 µM in the test on MOLT-4 leukemia; 28.3 µM in the test with OVCAR-3 ovarian; 45.9 µM with SW-620 colon; 36 µM in the test on UACC-62 melanoma; 27.2 µM with SF-539 CNS; 40.1 µM in the test with CAKI-1 renal. Also, the values for the GI50 with U251 CNS, in the test on A549 NSCLC and in the test with SNB-19 CNS were 25.2 µM, 27.9 µM and 23.7 µM, respectively. Further, the TGI is 59.9 µM in the test with MOLT-4 leukemia; more than 100 µM in the test with OVCAR-3 ovarian; more than 100 µM in the test on SW-620 colon; 91.6 µM with UACC-62 melanoma; 76.5 µM in the test with SF-539 CNS; more than 100 µM with CAKI-1 renal. For the same compound, the TGI in the test with U251 CNS is more than 100 µM; in the test with A549 NSCLC it was 98.6 µM; in the test with SNB-19 CNS, 69.5 µM.

Consider `COc1c(OC(C)=O)ccc(/C=C2\N=C(C)OC2=O)c1[N+](=O)[O-]`, for which the TGI in the test with MOLT-4 leukemia, in the test on SW-620 colon, with UACC-62 melanoma, with SF-539 CNS, in the test on CAKI-1 renal and in the test on U251 CNS was more than 100 µM each time. Besides, the TGI with A549 NSCLC and in the test with SNB-19 CNS was more than 100 µM each time.
